# Source: EP1142584A1, “COMPOSITIONS FOR TREATING FREQUENT URINATION AND URINARY INCONTINENCE” (Takeda Chemical Industries, Ltd., priority 1999, dated 2000)
# Counter-ions that a name gives are not always drawn. Marks after values point to notes of the source that are not given here.
# Columns and labels:
# Assay type in all cases: in vivo
# [1] = system: rhythmic bladder contractions in urethane-anesthetized rats; test: Rhythmic bladder contractions in urethane-anesthetized rats (Test Example 2); conditions: mean ± standard error; for Reflex shutdown time: maximum observation period 30 minutes
# Protocol: The urinary frequency and urinary incontinence suppressing activity of a GABA uptake inhibitor was measured as the ability to abolish the rhythmic bladder contractions in urethane-anesthetized rats as an index. An urethra was ligated, a constant volume of physiological saline warmed at 39°C was injected into the bladder to distend the detrusor muscle, and the regular rhythmic bladder contractions at a constant interval were observed. After the stable bladder contractions were confirmed, a compound was administered intravenously to investigate the activities. A time for completely suppressing the rhythmic bladder contractions after the drug administration (reflex shutdown time, a maximum observation period was 30 minutes) and a maximum contractile intravesical pressure at which the bladder contraction appeared again after the administration was measured. […] Table 2 Tiagabin hydrochloride was dissolved in distilled water, other drugs were dissolved in physiological saline, and the drugs were administered intravenously, respectively. Data are shown as mean ± standard error. *P<0.05, **P<0.01 (significance relative to the vehicle-administered control group, nonparametric Dunnett multiple comparison test, two-tailed test) ^#P<0.05 (significance to the values obtained before drug administration, paired t test, two-tailed test). A maximum contractile pressure was calculated from animals from which the bladder constriction was obtained in an observation period.
# [2] = system: bladder capacity in urethane-anesthetized rats; test: Bladder capacity (cystometry) in urethane-anesthetized rats (Test Example 3); conditions: mean ± standard error
# Protocol: The urinary frequency and urinary incontinence suppressing activity of a GABA uptake inhibitor was shown by the ability to increase bladder capacity in urethane-anesthetized rats. After a bladder was made empty by drawing out the urine, physiological saline warmed at 39°C was injected into the bladder at a constant rate (0.05 ml/min.) to induce micturition. These procedures were repeated to confirm stable bladder capacity (volume of physiological saline injected until start of micturition) and, thereafter, compounds were administered intravenously to investigate the activities. A change in bladder capacity and micturition pressure after the administration was measured. […] Table 3 Tiagabin hydrochloride was dissolved in distilled water, other drugs were dissolved in physiological saline and the drugs were administered intravenously, respectively. Data are shown as the mean ± standard error. After drug administration, animals showing an overflow urinary incontinence-like cystometrogram (urine leakage without the bladder constriction) were excluded from calculation of micturition pressure. *P<0.05, **P<0.01 (significance to the values obtained before drug administration, paired t test, two-tailed test)
# [3] = system: bilateral common carotid artery-ligated rat under consciousness; test: Micturition interval in bilateral common carotid artery-ligated rat under consciousness (Test Example 4); conditions: for Micturition interval (relative to before ligation, %) After administration / Micturition pressure (relative to before ligation, %) After administration: 30 minutes after administration; for Micturition interval (relative to before ligation, %) After administration / Micturition pressure (relative to before ligation, %) After administration / Micturition interval (relative to before ligation, %) Before administration / Micturition pressure (relative to before ligation, %) Before administration: mean ± standard error; for Micturition interval (relative to before ligation, %) Before administration / Micturition pressure (relative to before ligation, %) Before administration: after ligation, before drug
# Protocol: The urinary frequency and urinary incontinence suppressing activity of a GABA uptake inhibitor was measured as the ability to increase the micturition interval in bilateral common carotid artery-ligated rat under consciousness as an index. An animal was restricted in a Ballmann cage, and physiological saline was sustained-injected into the bladder at a constant rate (0.1 ml/min.) to induce repeated micturition. After the stable micturition interval was confirmed, common carotid arteries were ligated bilaterally and micturition interval was decreased. A compound was administered intravenously to animals with micturition interval decreased 20% or more following ligation, and the activity was investigated. The micturition interval and micturition pressure before and after drug administration were measured for 30 minutes, and the averages are expressed as the ratio to the value before bilateral common carotid artery-ligation (Table 4). […]
# Tiagabin hydrochloride was dissolved in distilled water and administered intravenously. Crystometograms for 30 minutes before and after drug administration were continuously measured and compared. Data are shown as a ratio to micturition interval and micturition pressure before bilateral common carotid artery-ligation (mean ± standard error). *P<0.05, **P<0.01 (significance relative to before drug administration, paired t test, two-tailed test)
# [4] = system: unilaterally decerebrated rat under consciousness; test: Micturition interval in unilaterally decerebrated rat under consciousness (Test Example 5); conditions: for Micturition interval (min.) After administration / Micturition pressure (mmHg) After administration / Micturition interval (min.) Before administration / Micturition pressure (mmHg) Before administration: mean ± standard error; for Micturition interval (min.) Before administration / Micturition pressure (mmHg) Before administration: 30 minutes before drug
# Protocol: The urinary frequency and urinary incontinence activity of a GABA uptake inhibitor was measured as the ability to increase the micturition interval in a unilaterally decerebrated rat under consciousness as an index. Animals were restricted in a Ballmann cage, and physiological saline was sustained-injected into the bladder at a constant rate (0.05 ml/min.) to induce repeated micturition. In a unilaterally decerebrated rat, micturition interval was decreased, and after the stable micturition interval was confirmed, a drug was administered intravenously or orally to investigate the activity (Table 5 and Table 6). The micturition interval and micturition pressure before and after drug administration were measured for 30 minutes, and the mean values were compared.
# A drug was administered intravenously. Cystometogram was continuously measured for 30 minutes starting 15 minutes after drug administration, and it was compared with that for 30 minutes before drug administration. Data are shown as the means ± standard error. *P<0.05 **P<0.01 (significance to before administration, paired t test, two-tailed test) Table 6
# A drug was administered orally. A bladder inner pressure curve was continuously measured for 30 minutes starting 60 minutes after drug administration, and it was compared with that for 30 minutes before drug administration. Data are shown as the mean ± standard error. *P<0.05 (significance relative to drug administration, paired t test, two-tailed test)
# [5] = baseline of the 0.1 mg/kg i.v. group
# [6] = baseline of the 0.3 mg/kg i.v. group
# [7] = baseline of the 1 mg/kg i.v. group
# [8] = baseline of the 3 mg/kg i.v. group
# [9] = 0.3 mg/kg intravenously, 30 minutes starting 15 minutes after administration
# [10] = 1 mg/kg intravenously, 30 minutes starting 15 minutes after administration
# [11] = 3 mg/kg intravenously, 30 minutes starting 15 minutes after administration
structure (smiles),measurement,setting,value
"Cc1ccsc1C(=CCCN1CCC[C@@H](C(=O)O)C1)c1sccc1C [Tiagabin hydrochloride, (R)-1-[4,4-bis(3-methyl-2-thienyl)-3-butenyl]-3-piperidinecarboxylic acid]","Change in maximum contractile intravesical pressure (Relative to before administration, %)",[1]; 0.3 mg/kg intravenously,-12.6±5.8%
same,Reflex shutdown time,[1]; 0.3 mg/kg intravenously,4.7 ± 1.6 min
same,"Change in maximum contractile intravesical pressure (Relative to before administration, %)",[1]; 1 mg/kg intravenously,4.5±17.3%
same,Reflex shutdown time,[1]; 1 mg/kg intravenously,11.6 ± 3.8 min
same,"Change in maximum contractile intravesical pressure (Relative to before administration, %)",[1]; 3 mg/kg intravenously,-19.4±11.8%
same,Reflex shutdown time,[1]; 3 mg/kg intravenously,18.0±3.5* min.
same,"Change in maximum contractile intravesical pressure (Relative to before administration, %)",[1]; 10 mg/kg intravenously,-31.6±10.5%
same,Reflex shutdown time,[1]; 10 mg/kg intravenously,24.6±3.1** min.
same,"Change in bladder capacity (Relative to before administration, %)",[2]; 1 mg/kg intravenously,42.7±35.6%
same,"Change in micturition pressure (Relative to before administration, %)",[2]; 1 mg/kg intravenously,15.2±14.6%
same,"Change in bladder capacity (Relative to before administration, %)",[2]; 3 mg/kg intravenously,236.8±81.2* %
same,"Change in micturition pressure (Relative to before administration, %)",[2]; 3 mg/kg intravenously,29.5±15.6%
same,"Change in bladder capacity (Relative to before administration, %)",[2]; 10 mg/kg intravenously,276.4±29.4** %
same,"Change in micturition pressure (Relative to before administration, %)",[2]; 10 mg/kg intravenously,2.5±10.3%
same,"Micturition interval (relative to before ligation, %) After administration",[3]; 0.1 mg/kg intravenously,78.8±10.0%
same,"Micturition pressure (relative to before ligation, %) After administration",[3]; 0.1 mg/kg intravenously,100.7±2.3%
same,"Micturition interval (relative to before ligation, %) After administration",[3]; 0.3 mg/kg intravenously,92.1±12.8* %
same,"Micturition pressure (relative to before ligation, %) After administration",[3]; 0.3 mg/kg intravenously,86.3±9.2%
same,"Micturition interval (relative to before ligation, %) After administration",[3]; 1 mg/kg intravenously,100.0±6.5** %
same,"Micturition pressure (relative to before ligation, %) After administration",[3]; 1 mg/kg intravenously,105.0±8.4%
same,"Micturition interval (relative to before ligation, %) After administration",[3]; 3 mg/kg intravenously,75.5±15.0* %
same,"Micturition pressure (relative to before ligation, %) After administration",[3]; 3 mg/kg intravenously,106.2 ± 5.3%
same,"Micturition interval (relative to before ligation, %) Before administration",[3]; [5],58.5±3.1%
same,"Micturition pressure (relative to before ligation, %) Before administration",[3]; [5],103.9±1.1%
same,"Micturition interval (relative to before ligation, %) Before administration",[3]; [6],62.5±4.9%
same,"Micturition pressure (relative to before ligation, %) Before administration",[3]; [6],91.3±10.6%
same,"Micturition interval (relative to before ligation, %) Before administration",[3]; [7],63.2±3.3%
same,"Micturition pressure (relative to before ligation, %) Before administration",[3]; [7],111.5±8.3%
same,"Micturition interval (relative to before ligation, %) Before administration",[3]; [8],46.5±11.6%
same,"Micturition pressure (relative to before ligation, %) Before administration",[3]; [8],105.2±10.8%
same,micturition interval (result in words),"[3]; intravenously, interval decreased by bilateral common carotid artery ligation, summary of Table 4",showed an increasing effect on micturition interval
same,Micturition interval (min.) After administration,[4]; [9],6.8 ± 0.9 min
same,Micturition pressure (mmHg) After administration,[4]; [9],15.1±2.6 mmHg
same,Micturition interval (min.) After administration,[4]; [10],6.5±1.0* min.
same,Micturition pressure (mmHg) After administration,[4]; [10],14.5±1.5 mmHg
same,Micturition interval (min.) After administration,[4]; [11],7.3±0.5** min.
same,Micturition pressure (mmHg) After administration,[4]; [11],16.5±1.6 mmHg
same,Micturition interval (min.) After administration,"[4]; 3 mg/kg orally, 30 minutes starting 60 minutes after administration",5.6 ± 0.7 min
same,Micturition interval (min.) After administration,"[4]; 10 mg/kg orally, 30 minutes starting 60 minutes after administration",6.1±0.8* min.
same,Micturition interval (min.) Before administration,[4]; [6],6.6 ± 1.5 min
same,Micturition pressure (mmHg) Before administration,[4]; [6],13.9±2.3 mmHg
same,Micturition interval (min.) Before administration,[4]; [7],5.2 ± 0.7 min
same,Micturition pressure (mmHg) Before administration,[4]; [7],14.4±1.4 mmHg
same,Micturition interval (min.) Before administration,[4]; [8],5.1 ± 0.5 min
same,Micturition pressure (mmHg) Before administration,[4]; [8],16.1±1.4 mmHg
same,Micturition interval (min.) Before administration,[4]; baseline of the 3 mg/kg oral group,4.9 ± 0.8 min
same,Micturition interval (min.) Before administration,[4]; baseline of the 10 mg/kg oral group,4.4 ± 0.5 min
same,micturition interval (result in words),"[4]; both intravenous and oral administrations, summary of Table 5 and Table 6",increased micturition interval
"O=C(O)[C@@H]1CCCN(CCC=C(c2ccccc2)c2ccccc2)C1 [SKF89976A hydrochloride, (R)-1-(4,4-diphenyl-3-butenyl)-3-piperidinecarboxylic acid]","Change in maximum contractile intravesical pressure (Relative to before administration, %)",[1]; 3 mg/kg intravenously,-7.1±3.1%
same,Reflex shutdown time,[1]; 3 mg/kg intravenously,5.0 ± 1.0 min
same,"Change in maximum contractile intravesical pressure (Relative to before administration, %)",[1]; 10 mg/kg intravenously,-12.1±11.5%
same,Reflex shutdown time,[1]; 10 mg/kg intravenously,15.7±3.3* min.
same,"Change in maximum contractile intravesical pressure (Relative to before administration, %)",[1]; 30 mg/kg intravenously,-8.4±10.6%
same,Reflex shutdown time,[1]; 30 mg/kg intravenously,25.1±4.6** min.
